# Measurements published in paper PMC8369945 (Hepatology Communications, 2021).
# Entries after “also recorded” stand apart in the source; their conditions may differ.
# How the values were obtained:
# [1] = tested on: C57BL/6J mice on CD or MCD diet; assay: Choline-deficient; format: in vivo, mouse; conditions: for markers of NASH progression: two diet models (d-S-pio only CD)
# C57BL/6J male mice = assay: Weight gain study in mouse; format: in vivo; conditions: normal C57BL/6J male mice, pio 30, PXL065 15, d-S-pio 15 mg/kg/day, twice daily; for body weight versus vehicle: after 10 days of dosing
# db/db mice = assay: db/db mouse model of T2DM; format: in vivo; conditions: 10 days once daily p.o., pio 30, PXL065 20, d-S-pio 20 mg/kg
# [2] = Phase 1a clinical study, pharmacokinetics in healthy subjects; conditions: human, single 22.5 mg PXL065
# PPARα = molecular target: T1, PPARα (Homo sapiens, UniProt Q07869); assay: PPARα coactivator recruitment
# T1 sequence (Q07869 1-468): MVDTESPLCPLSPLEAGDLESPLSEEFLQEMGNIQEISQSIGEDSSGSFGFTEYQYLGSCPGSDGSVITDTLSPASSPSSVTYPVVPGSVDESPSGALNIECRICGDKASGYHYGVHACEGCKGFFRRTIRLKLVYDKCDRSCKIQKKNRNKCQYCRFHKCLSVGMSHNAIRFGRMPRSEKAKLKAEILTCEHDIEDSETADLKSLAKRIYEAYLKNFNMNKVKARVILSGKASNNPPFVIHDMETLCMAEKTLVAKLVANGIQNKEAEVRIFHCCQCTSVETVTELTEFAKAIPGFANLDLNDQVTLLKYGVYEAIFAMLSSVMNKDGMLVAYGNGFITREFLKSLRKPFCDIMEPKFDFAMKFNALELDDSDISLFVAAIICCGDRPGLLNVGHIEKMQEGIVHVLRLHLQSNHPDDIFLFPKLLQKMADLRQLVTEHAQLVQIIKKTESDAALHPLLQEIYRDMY
# PPARδ = molecular target: T2, PPARδ (Homo sapiens, UniProt Q03181); assay: PPARδ coactivator recruitment
# T2 sequence (Q03181 1-441): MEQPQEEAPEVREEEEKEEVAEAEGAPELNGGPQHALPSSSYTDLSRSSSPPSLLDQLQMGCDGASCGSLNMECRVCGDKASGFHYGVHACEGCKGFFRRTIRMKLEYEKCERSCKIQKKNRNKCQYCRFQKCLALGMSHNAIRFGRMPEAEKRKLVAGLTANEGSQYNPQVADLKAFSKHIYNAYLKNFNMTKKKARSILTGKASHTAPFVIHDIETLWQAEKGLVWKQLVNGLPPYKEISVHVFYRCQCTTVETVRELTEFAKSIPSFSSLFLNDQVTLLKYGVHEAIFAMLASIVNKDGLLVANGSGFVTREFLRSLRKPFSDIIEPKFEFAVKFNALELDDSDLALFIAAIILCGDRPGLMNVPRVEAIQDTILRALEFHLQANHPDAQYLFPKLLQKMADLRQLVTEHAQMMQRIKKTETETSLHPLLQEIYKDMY
"exposure to (R)-pioglitazone, higher than in the 45-mg Actos group [2]","exposure to the (S)-enantiomer, lower than in the 45-mg Actos group [2]",body-weight loss compared with vehicle- or PXL065-treated animals ([1]; MCD diet),Compound,adiponectin ([1]; CD diet mice),hepatic fibrosis ([1]; either diet),markers of NASH progression [1],body weight versus vehicle (C57BL/6J male mice),fluid retention (total body water) (C57BL/6J male mice),"inflammatory markers serum amyloid A, IL-1β and IL-6 (db/db mice)",serum adiponectin (db/db mice),serum insulin (db/db mice),"reduction of hepatic steatosis and triglycerides, compared with pioglitazone ([1]; CD diet mice)",agonist activity at PPARα (PPARα),agonist activity at PPARδ (PPARδ)
,,,"[2H][C@@]1(Cc2ccc(OCCc3ccc(CC)cn3)cc2)SC(=O)NC1=O [d‐S‐pio, deuterated (S)‐pioglitazone]",increase,antifibrotic effect similar to that observed with PXL065 and pioglitazone,overall without effect,significantly increased body weight over vehicle,trend was observed for increased fluid retention; also recorded: a trend was observed,no effect,significantly increased,trend toward significant reduction,,,
19%,42%,,"[2H][C@]1(Cc2ccc(OCCc3ccc(CC)cn3)cc2)SC(=O)NC1=O [PXL065, deuterated (R)‐pioglitazone]",increase,,significantly affected all markers of NASH progression,did not increase body weight,,significantly decreased,nonsignificant trend,,superior to pioglitazone,,
,,weight loss tended to be less,"CCc1ccc(CCOc2ccc(CC3SC(=O)NC3=O)cc2)nc1 (centres unmarked) [pioglitazone, reference compound]",increase,,significantly affected all markers of NASH progression,significantly increased body weight over vehicle,trend was observed for increased fluid retention; also recorded: significant increase in total body water,significantly decreased,significantly increased,significantly decreased,,"Neither pioglitazone, PXL065, nor d‐S‐pio showed binding to PPARα or agonist activity at PPARα or PPARδ","Neither pioglitazone, PXL065, nor d‐S‐pio showed binding to PPARα or agonist activity at PPARα or PPARδ"
